According to patent US20250154115A1, “ARYLBENZOISOXAZOLE COMPOUNDS AS IP6K AND IPMK INHIBITORS AND METHODS OF USE THEREOF” (THE UNIVERSITY OF NORTH CAROLINA AT CHAPEL HILL, priority 2022, published 2025):

Experiments:
Format in all cases: biochemical
IP6K1 = IP6K1 (Homo sapiens (Human), UniProt Q92551); test: Enzyme-coupled assay of IP6K1 activity (Dipp1-coupled, malachite green Pi release)
Description: (§1) […] The cells were disrupted using a constant cell disruption system (Constant Systems) under 20 kPsi.
(§2) Pi release was determined with a malachite green colorimetric assay.^45 Where indicated, TNP (Cayman Chemical) was added to the assays (FIG. 2A-E).

IP6K2 = IP6K2 (Homo sapiens (Human), UniProt Q9UHH9); test: Enzyme-coupled assay of IP6K2 activity (Dipp1-coupled, malachite green Pi release)
IP6K2, sequence (Q9UHH9 whole entry): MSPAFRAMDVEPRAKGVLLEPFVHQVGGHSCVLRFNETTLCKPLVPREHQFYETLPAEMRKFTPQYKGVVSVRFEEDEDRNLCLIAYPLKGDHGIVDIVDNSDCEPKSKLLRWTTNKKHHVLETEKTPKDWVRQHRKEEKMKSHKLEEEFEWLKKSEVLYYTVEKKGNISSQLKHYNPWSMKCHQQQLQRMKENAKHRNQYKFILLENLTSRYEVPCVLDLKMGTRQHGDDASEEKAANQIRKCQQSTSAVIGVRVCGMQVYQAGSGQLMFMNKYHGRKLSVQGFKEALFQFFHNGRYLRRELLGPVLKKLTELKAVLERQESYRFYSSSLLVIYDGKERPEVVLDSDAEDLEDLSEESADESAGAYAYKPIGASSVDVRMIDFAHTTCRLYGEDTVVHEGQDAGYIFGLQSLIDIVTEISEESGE
Description: as §1, §2

IPMK = IPMK (Homo sapiens (Human), UniProt Q8NFU5); test: Enzyme-coupled assay, IPMK IC50
IPMK, sequence (Q8NFU5 whole entry, species assumed): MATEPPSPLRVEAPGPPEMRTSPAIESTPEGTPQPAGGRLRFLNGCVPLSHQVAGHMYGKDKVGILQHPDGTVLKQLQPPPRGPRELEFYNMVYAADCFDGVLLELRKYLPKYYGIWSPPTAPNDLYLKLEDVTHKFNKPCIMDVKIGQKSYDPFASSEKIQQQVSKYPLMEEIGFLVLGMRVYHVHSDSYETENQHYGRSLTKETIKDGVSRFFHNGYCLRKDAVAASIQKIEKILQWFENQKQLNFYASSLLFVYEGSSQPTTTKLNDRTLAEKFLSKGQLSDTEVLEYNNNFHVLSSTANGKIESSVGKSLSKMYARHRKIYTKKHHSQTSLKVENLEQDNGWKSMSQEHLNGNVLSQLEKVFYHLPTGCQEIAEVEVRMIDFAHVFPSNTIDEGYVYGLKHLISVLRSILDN

[1] = determined from enzyme-coupled assays

IP6K1, sequence (Q92551 whole entry): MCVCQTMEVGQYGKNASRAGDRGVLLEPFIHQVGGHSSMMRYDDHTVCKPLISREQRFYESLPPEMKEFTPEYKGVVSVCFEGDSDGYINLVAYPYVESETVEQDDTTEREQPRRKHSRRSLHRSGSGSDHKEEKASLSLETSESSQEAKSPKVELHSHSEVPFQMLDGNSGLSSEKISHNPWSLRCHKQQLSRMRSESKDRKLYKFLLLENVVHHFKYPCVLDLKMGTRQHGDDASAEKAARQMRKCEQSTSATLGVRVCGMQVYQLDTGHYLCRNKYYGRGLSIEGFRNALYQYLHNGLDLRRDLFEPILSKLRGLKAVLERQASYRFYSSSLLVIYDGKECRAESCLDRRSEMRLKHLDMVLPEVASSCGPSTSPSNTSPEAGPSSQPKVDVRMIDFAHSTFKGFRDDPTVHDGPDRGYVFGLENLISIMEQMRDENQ

SMILES: CC1(COc2cccc(-c3onc4ccc(-c5nnn[nH]5)cc34)c2)COC1 [Cmpd 91]
- IC50 (IP6K1; enzyme-coupled assay, Table 4): 0.01 to 0.1 µM
- IC50 (IP6K2; enzyme-coupled assay, Table 4): 0.01 to 0.1 µM

SMILES: O=c1[nH]c(-c2ccc3noc(-c4cccc(Oc5ncc(Cl)cc5Cl)c4)c3c2)no1 [Cmpd 127]
- IC50 (IP6K1; [1]): 0.01 to 0.1 µM
- IC50 (IPMK; [1]): 0.01 to 0.1 µM
- IC50 (IP6K2; [1]): 0.01 to 0.1 µM

SMILES: CC(C)(C)OC(=O)N1CCC(Oc2cccc(-c3onc4ccc(-c5noc(=O)[nH]5)cc34)c2)CC1 [Cmpd 128]
- IC50 (IP6K1; [1]): 0.01 to 0.1 µM
- IC50 (IPMK; [1]): 0.01 to 0.1 µM
- IC50 (IP6K2; [1]): 0.01 to 0.1 µM

SMILES: O=c1[nH]c(-c2ccc3noc(-c4cccc(OC5CCNCC5)c4)c3c2)no1 [Cmpd 129]
- IC50 (IP6K1; [1]): 0.01 to 0.1 µM
- IC50 (IPMK; [1]): < 0.01 µM
- IC50 (IP6K2; [1]): 0.01 to 0.1 µM

SMILES: O=C(Nc1ccc(-c2onc3ccc(-c4noc(=O)[nH]4)cc23)cc1)C1CCCC1 [Cmpd 130]
- IC50 (IP6K1; [1]): < 0.01 µM
- IC50 (IPMK; [1]): 0.01 to 0.1 µM
- IC50 (IP6K2; [1]): < 0.01 µM

SMILES: CN1CCC(Oc2cccc(-c3onc4ccc(-c5noc(=O)[nH]5)cc34)c2)CC1 [Cmpd 131]
- IC50 (IP6K1; [1]): 0.1 to 1 µM
- IC50 (IPMK; [1]): 0.1 to 1 µM
- IC50 (IP6K2; [1]): 0.1 to 1 µM

SMILES: O=c1[nH]c(-c2ccc3noc(-c4cccc(OC5CCN(CC6CC6)CC5)c4)c3c2)no1 [Cmpd 132]
- IC50 (IP6K1; [1]): 0.1 to 1 µM
- IC50 (IPMK; [1]): 0.01 to 0.1 µM
- IC50 (IP6K2; [1]): 0.1 to 1 µM

SMILES: O=c1[nH]c(-c2ccc3noc(-c4cccc(OC5CCN(C6CCC6)CC5)c4)c3c2)no1 [Cmpd 133]
- IC50 (IP6K1; [1]): 0.1 to 1 µM
- IC50 (IPMK; [1]): 0.01 to 0.1 µM
- IC50 (IP6K2; [1]): 0.1 to 1 µM

SMILES: O=c1[nH]c(-c2ccc3noc(-c4cccc(OC5CCN(C6COC6)CC5)c4)c3c2)no1 [Cmpd 134]
- IC50 (IP6K1; [1]): 0.1 to 1 µM
- IC50 (IPMK; [1]): 0.1 to 1 µM
- IC50 (IP6K2; [1]): 0.1 to 1 µM

SMILES: O=c1[nH]c(-c2ccc3noc(-c4cccc(OC5CCN(CCO)CC5)c4)c3c2)no1 [Cmpd 135]
- IC50 (IP6K1; [1]): 0.1 to 1 µM
- IC50 (IPMK; [1]): 0.01 to 0.1 µM
- IC50 (IP6K2; [1]): 0.1 to 1 µM

SMILES: O=C(Nc1ccc(-c2onc3ccc(-c4noc(=O)[nH]4)cc23)cc1)[C@@H]1CCCN1 [Cmpd 136]
- IC50 (IP6K1; [1]): 0.1 to 1 µM
- IC50 (IPMK; [1]): 0.01 to 0.1 µM
- IC50 (IP6K2; [1]): 0.1 to 1 µM

SMILES: O=C(Nc1ccc(-c2onc3ccc(-c4noc(=O)[nH]4)cc23)cc1)C1CNC1 [Cmpd 137]
- IC50 (IP6K1; [1]): 0.1 to 1 µM
- IC50 (IPMK; [1]): 0.1 to 1 µM
- IC50 (IP6K2; [1]): 1 to 100 µM

SMILES: O=C(C1CC1)N1CCC(Oc2cccc(-c3onc4ccc(-c5noc(=O)[nH]5)cc34)c2)CC1 [Cmpd 138]
- IC50 (IP6K1; [1]): 0.1 to 1 µM
- IC50 (IPMK; [1]): 0.01 to 0.1 µM
- IC50 (IP6K2; [1]): 0.01 to 0.1 µM

SMILES: CC1(C(=O)N2CCC(Oc3cccc(-c4onc5ccc(-c6noc(=O)[nH]6)cc45)c3)CC2)COC1 [Cmpd 139]
- IC50 (IP6K1; [1]): 0.1 to 1 µM
- IC50 (IPMK; [1]): 0.1 to 1 µM
- IC50 (IP6K2; [1]): 0.01 to 0.1 µM

SMILES: CCOC(=O)/C=C/c1ccc2noc(-c3ccccc3)c2c1 [Compound 7]
- IC50 (IP6K1; enzyme-coupled assay, Table 1): 1 to 100 µM
- IC50 (IP6K2; enzyme-coupled assay, Table 1): 1 to 100 µM

SMILES: COc1ccc(-c2onc3ccc(/C=C/C(=O)O)cc23)cc1 [Compound 13]
- IC50 (IP6K1; enzyme-coupled assay, Table 1): 0.1 to 1 µM
- IC50 (IP6K2; enzyme-coupled assay, Table 1): 1 to 100 µM

SMILES: CNC(=O)c1ccc2noc(-c3ccccc3)c2c1 [Compound 21]
- IPMK IC50 (IPMK; enzyme-coupled assay, Table 2): −

SMILES: O=C(O)c1ccc2noc(-c3ccc(OC(F)(F)F)cc3)c2c1 [Compound 23]
- IC50 (IP6K1; enzyme-coupled assay, Table 2): 1 to 100 µM
- IC50 (IP6K2; enzyme-coupled assay, Table 2): 0.1 to 1 µM

SMILES: CNC(=O)c1ccc2noc(-c3cccc(Oc4ncc(Cl)cc4Cl)c3)c2c1 [Compound 31]
- IC50 (IP6K1; enzyme-coupled assay, Table 2): 0.1 to 1 µM
- IC50 (IPMK; enzyme-coupled assay, Table 2): 1 to 100 µM
- IC50 (IP6K2; enzyme-coupled assay, Table 2): 0.1 to 1 µM

SMILES: CN1CCC(NC(=O)c2ccc(-c3onc4ccc(C(=O)O)cc34)cc2)CC1 [Compound 40]
- IC50 (IP6K1; enzyme-coupled assay, Table 2): 1 to 100 µM
- IPMK IC50 (IPMK; enzyme-coupled assay, Table 2): −
- IC50 (IP6K2; enzyme-coupled assay, Table 2): 1 to 100 µM

SMILES: O=C(O)c1ccc2noc(-c3ccc(C(=O)NCCN4CCOCC4)cc3)c2c1 [Compound 41]
- IP6K1 IC50 (IP6K1; enzyme-coupled assay, Table 2): −
- IPMK IC50 (IPMK; enzyme-coupled assay, Table 2): −
- IP6K2 IC50 (IP6K2; enzyme-coupled assay, Table 2): −

SMILES: O=C(O)c1ccc2noc(-c3ccc(NC(=O)C4CCNCC4)cc3)c2c1 [Compound 48]
- IC50 (IP6K1; enzyme-coupled assay, Table 2): 1 to 100 µM
- IPMK IC50 (IPMK; enzyme-coupled assay, Table 2): −
- IC50 (IP6K2; enzyme-coupled assay, Table 2): 1 to 100 µM

SMILES: O=C(O)c1ccc2noc(-c3cccc(NC(=O)C4CCCC4)c3)c2c1 [Compound 49]
- IC50 (IP6K1; enzyme-coupled assay, Table 2): 0.1 to 1 µM
- IC50 (IPMK; enzyme-coupled assay, Table 2): 0.01 to 0.1 µM
- IC50 (IP6K2; enzyme-coupled assay, Table 2): 0.1 to 1 µM

SMILES: CC(C)C(=O)Nc1cccc(-c2onc3ccc(C(=O)O)cc23)c1 [Compound 50]
- IC50 (IP6K1; enzyme-coupled assay, Table 2): 1 to 100 µM
- IC50 (IPMK; enzyme-coupled assay, Table 2): 0.1 to 1 µM
- IC50 (IP6K2; enzyme-coupled assay, Table 2): 0.1 to 1 µM

SMILES: O=C(O)c1ccc2noc(-c3cccc(-c4cccc(Cl)c4)c3)c2c1 [Compound 51]
- IC50 (IP6K1; enzyme-coupled assay, Table 2): 0.1 to 1 µM
- IC50 (IPMK; enzyme-coupled assay, Table 2): 0.01 to 0.1 µM
- IC50 (IP6K2; enzyme-coupled assay, Table 2): 0.1 to 1 µM

SMILES: COc1ccc(COc2cncc(-c3cccc(-c4onc5ccc(C(=O)O)cc45)c3)c2)cc1 [Compound 52]
- IC50 (IP6K1; enzyme-coupled assay, Table 2): 0.1 to 1 µM
- IC50 (IPMK; enzyme-coupled assay, Table 2): 0.1 to 1 µM
- IC50 (IP6K2; enzyme-coupled assay, Table 2): 0.1 to 1 µM

SMILES: O=C(O)c1ccc2noc(-c3cccc(-c4cncc(O)c4)c3)c2c1 [Compound 53]
- IC50 (IP6K1; enzyme-coupled assay, Table 2): 0.1 to 1 µM
- IC50 (IP6K2; enzyme-coupled assay, Table 2): 0.1 to 1 µM

SMILES: O=C(O)c1ccc2noc(-c3ccc(-c4cccnc4)cc3)c2c1 [Compound 57]
- IC50 (IPMK; enzyme-coupled assay, Table 3): 0.01 to 0.1 µM

SMILES: c1cc(OC2CCN(C3CCC3)CC2)cc(-c2onc3ccc(-c4nnn[nH]4)cc23)c1 [Compound 62]
- IC50 (IPMK; enzyme-coupled assay, Table 4): 0.01 to 0.1 µM
- IC50 (IP6K2; enzyme-coupled assay, Table 4): 0.1 to 1 µM

SMILES: Clc1ccc(-c2cccc(-c3onc4ccc(-c5nnn[nH]5)cc34)c2)c(Cl)c1 [Compound 84]
- IC50 (IP6K1; enzyme-coupled assay, Table 4): 0.01 to 0.1 µM
- IC50 (IPMK; enzyme-coupled assay, Table 4): 0.01 to 0.1 µM
- IC50 (IP6K2; enzyme-coupled assay, Table 4): 0.01 to 0.1 µM

SMILES: CC(=O)N1CCC(Oc2cccc(-c3onc4ccc(-c5nnn[nH]5)cc34)c2)CC1 [Compound 85, 1-(4-(3-(5-(1H-tetrazol-5-yl)benzo[c]isoxazol-3-yl)phenoxy)piperidin-1-yl)ethan-1-one]
- IC50 (IP6K1; enzyme-coupled assay, Table 4): < 0.01 µM
- IC50 (IPMK; enzyme-coupled assay, Table 4): 0.01 to 0.1 µM
- IC50 (IP6K2; enzyme-coupled assay, Table 4): 0.01 to 0.1 µM
